Results: PubChem BioAssay (NCI)
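Interpolation was linear, between the two tested concentrations surrounding the appropriate level; five concentrations were tested over 48 hours in 96-well plates. Here, GI50 denotes the concentration required for 50% inhibition of growth. TGI is the concentration that stops growth completely.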

Legend:
Assay in all cases: DTP human tumour cell line panel, 48 h
[1] = tested on: NCI-H226 lung
[2] = tested on: SK-MEL-2 melanoma
[3] = tested on: M19-MEL melanoma
[4] = tested on: SNB-78 CNS
[5] = tested on: SK-MEL-28 melanoma
[6] = tested on: HOP-62 NSCLC
[7] = tested on: DMS 273 small cell lung
[8] = tested on: OVCAR-4 ovarian
[9] = tested on: MDA-MB-435
[10] = tested on: HS 578T breast

Structure (SMILES)	GI50 [1]	TGI [1]	GI50 [2]	TGI [2]	GI50 [3]	TGI [3]	GI50 [4]	TGI [4]	GI50 [5]	TGI [5]	TGI [6]	GI50 [7]	TGI [7]	GI50 [8]	TGI [8]	TGI [9]	TGI [10]
CC1=Nc2c(ccc3c2C(=O)c2ccccc2C3=O)NC(c2ccncc2)C1 (configuration not stated)	> 100 µM	> 100 µM	> 100 µM	> 100 µM	> 100 µM	> 100 µM	> 100 µM	> 100 µM	> 100 µM	> 100 µM	> 100 µM	> 100 µM	> 100 µM	> 100 µM	> 100 µM		
O=c1c2ccccc2c2c3c1cccc3c1cccc3c(=O)c4ccccc4c2c31		> 100 µM		> 100 µM		> 100 µM		> 100 µM		> 100 µM	> 100 µM		> 100 µM		> 100 µM		
COc1ccc2c(-c3cc4ccccc4o3)cc(=O)oc2c1		> 100 µM		> 100 µM		> 100 µM		> 100 µM		> 100 µM	46.7 µM		> 100 µM		71.8 µM	> 100 µM	43.6 µM
C=C(COC(C)=O)CC(/C=C(\C)CCC=C(C)C)OC(C)=O (configuration not stated)		> 100 µM		> 100 µM		> 100 µM		> 100 µM		> 100 µM	> 100 µM		> 100 µM		> 100 µM		
NS(=O)(=O)c1ccc(NC(=O)c2cccc3c(=O)c4ccccc4[nH]c23)cc1		> 100 µM		> 100 µM		> 100 µM		> 100 µM		> 100 µM	> 100 µM		> 100 µM		> 100 µM		
CC(C)(C)C1(O)Cc2ccccc2C(=O)O1 (configuration not stated)		> 100 µM		> 100 µM		> 100 µM		> 100 µM		> 100 µM	> 100 µM		> 100 µM		> 100 µM		
Oc1c2c(c(O)c3ccccc13)=N[C@@H](c1ccccc1)[C@H](c1ccccc1)N=2		> 100 µM		> 100 µM		> 100 µM		> 100 µM		> 100 µM	> 100 µM		> 100 µM		> 100 µM		
CCOc1cccc2nc3cccc(C(=O)NCCN(C)C)c3nc12		2.08 µM		3.86 µM		2.83 µM		9.3 µM		3.77 µM	2.18 µM		> 100 µM		8.58 µM		
c1ccc2c(c1)N=C(c1cccc3ccccc13)CC(c1cccc3ccccc13)S2 (configuration not stated)		24.6 µM		33 µM		20.3 µM		33.4 µM		25.9 µM	26.1 µM		> 44.7 µM		12.4 µM		
CC(C)(C)c1nc2c(o1)C(=Nc1ccc(F)cc1)c1ccccc1C2=O		34.3 µM		8.03 µM		3.08 µM		> 100 µM		26 µM	32.4 µM		10.5 µM		> 100 µM	3.76 µM	> 45.7 µM
CN(C)C(=S)/N=c1\ss/c(=N\S(=O)(=O)c2ccccc2)n1-c1ccccc1		> 100 µM		> 100 µM		> 100 µM		> 100 µM		> 100 µM	98.3 µM		> 100 µM		> 100 µM		
COc1ccc(C(=O)C(C(=O)CCC(=O)Nc2cccc(C(F)(F)F)c2)c2ccccc2)cc1 (configuration not stated)		> 100 µM		> 100 µM		> 100 µM		> 100 µM		> 100 µM	> 100 µM		> 100 µM		> 100 µM		
